Results taken from patent publication EP2377520A1, “Pharmaceutical compound of prasugrel” (Ratiopharm GmbH, priority 2010, dated 2011).
In brackets after ≈: the same amount, converted by molar mass.

What was measured:
Solubility in water = assay type: physicochemical; details: in Wasser, freie Base, read-out: Löslichkeit
Procedure: Prasugrel wird als Plättchenaggregationshemmer oral verabreicht. Problematisch hierbei ist, dass es sich bei Prasugrel um einen schwer löslichen Wirkstoff handelt. Die freie Base des Wirkstoffs weist eine Löslichkeit von 57 µg/ml in Wasser auf, aber auch die Salze zeigen nur eine begrenzte Löslichkeit.

pH-dependent degradation = assay type: physicochemical; details: pH-Werte < 3; nach bereits 2 Stunden; read-out: Abbau
Description: Darüber hinaus weist Prasugrel auch einen stark pH-abhängigen Abbau auf. Bei pH-Werten von < 3 ist ein Abbau von mehr als 1 % nach bereits 2 Stunden zu beobachten. Dies schränkt die möglichen Hilfsstoffe bei der Herstellung pharmazeutischer Formulierungen ein.

## CC(=O)Oc1cc2c(s1)CCN(C(C(=O)C1CC1)c1ccccc1F)C2 (centres unmarked) [Prasugrel, 2-Acetoxy-5-(a-cyclopropylcarbonyl-2-fluorbenzyl)-4,5,6,7-tetrahydrothieno[3,2-c]pyridin]
Solubility in water
  solubility: 57 µg/mL (≈ 153 µM)
pH-dependent degradation
  degraded at 2 h: > 1%
